For 21 molecules, TGI results are on record in PubChem BioAssay (NCI).

SMILES strings stand for the structures.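 Assay format: 96-well plates, 48-hour exposure. TGI marks complete inhibition of growth.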

Some test systems named below: HOP-62 NSCLC; SR leukemia; LOX IMVI melanoma; NCI/ADR-RES ovarian; MALME-3M melanoma; SK-OV-3 ovarian; NCI-H522 lung; HS 578T breast; RPMI-8226 leukemia; OVCAR-4 ovarian.
Common to all, as to assay: inhibition of tumour cell growth, NCI panel, 48 h

Consider `CN(C)C(=O)C1CCN(Cc2c[nH]c3ccccc23)CC1`, for which the TGI in the assay with HOP-62 NSCLC, with SR leukemia, in the assay with LOX IMVI melanoma, in the assay on NCI/ADR-RES ovarian, with MALME-3M melanoma and in the assay with SK-OV-3 ovarian was greater than 100 µM each time. For the same molecule, the TGI with NCI-H522 lung, with HS 578T breast, in the assay with RPMI-8226 leukemia and in the assay with OVCAR-4 ovarian was greater than 100 µM each time.

For the molecule `O=C1C(Cl)=C(N2CCN(c3ccccn3)CC2)C(=O)c2ncccc21`, the TGI in the assay with HOP-62 NSCLC was 25.6 µM; in the assay with SR leukemia, 3.2 µM; with LOX IMVI melanoma, 3.59 µM; in the assay on NCI/ADR-RES ovarian it was 7.44 µM; in the assay with MALME-3M melanoma it was 3.21 µM; in the assay on SK-OV-3 ovarian, 20.6 µM. The TGI was 2.83 µM in the assay on NCI-H522 lung, 5.95 µM in the assay with HS 578T breast, 5.7 µM in the assay on RPMI-8226 leukemia and 3.33 µM in the assay on OVCAR-4 ovarian.

As for `COc1cc(C23OCC(Cc4cc5c(cc42)OCO5)C3CO)cc(OC)c1OC` (stereo not given), the TGI in the assay on HOP-62 NSCLC is greater than 100 µM; in the assay on SR leukemia, greater than 100 µM; with LOX IMVI melanoma, 13.2 µM; with NCI/ADR-RES ovarian, 5.51 µM; in the assay on MALME-3M melanoma it was greater than 100 µM; in the assay on SK-OV-3 ovarian, greater than 28.8 µM. For the same molecule, the TGI was 5.11 µM in the assay with NCI-H522 lung, greater than 100 µM in the assay with HS 578T breast, greater than 100 µM in the assay on RPMI-8226 leukemia and greater than 100 µM in the assay on OVCAR-4 ovarian.

As for `CN(C)c1ccc(C2ON=C(c3ccccc3)N2C23CC4CC(CC(C4)C2)C3)cc1` (stereo not given), the TGI in the assay on HOP-62 NSCLC, with SR leukemia, in the assay on LOX IMVI melanoma, with NCI/ADR-RES ovarian, in the assay on MALME-3M melanoma and with SK-OV-3 ovarian was greater than 10 µM each time. The TGI in the assay on NCI-H522 lung, in the assay on HS 578T breast, with RPMI-8226 leukemia and in the assay with OVCAR-4 ovarian was greater than 10 µM in each case.

For `CC(Oc1ccccc1Cl)C(=O)NN1C(=O)CSC1c1ccc(Cl)cc1` (stereo not given), the TGI with HOP-62 NSCLC came out at 36.4 µM; with SR leukemia, 22.9 µM; in the assay on LOX IMVI melanoma, 39 µM; with NCI/ADR-RES ovarian, 61.4 µM; in the assay with MALME-3M melanoma, 93.4 µM; in the assay with SK-OV-3 ovarian it was 39.7 µM. Besides, the TGI is 32.8 µM in the assay with NCI-H522 lung, 46.3 µM in the assay with HS 578T breast, 38.4 µM in the assay with RPMI-8226 leukemia and 29.3 µM in the assay with OVCAR-4 ovarian.

With `Nc1ccccc1N=Nc1c(S(=O)(=O)O)cc2cc(S(=O)(=O)O)cc(O)c2c1O`, the TGI in the assay with HOP-62 NSCLC, in the assay on SR leukemia, in the assay on LOX IMVI melanoma, with NCI/ADR-RES ovarian, in the assay on MALME-3M melanoma and in the assay with SK-OV-3 ovarian was greater than 100 µM in each case. In addition, the TGI in the assay on NCI-H522 lung, in the assay with HS 578T breast, in the assay with RPMI-8226 leukemia and in the assay on OVCAR-4 ovarian was greater than 100 µM throughout.

Regarding `COC(=O)[C@@H]1Cc2cc(O)c(O)cc2C2(CCN(C)CC2)O1`, the TGI in the assay with HOP-62 NSCLC, with SR leukemia, in the assay with LOX IMVI melanoma, in the assay with NCI/ADR-RES ovarian, in the assay on MALME-3M melanoma and in the assay with SK-OV-3 ovarian was greater than 10 µM in each case. The TGI in the assay with NCI-H522 lung, in the assay with HS 578T breast, with RPMI-8226 leukemia and in the assay on OVCAR-4 ovarian was greater than 10 µM in each case.

Take `COc1ncnc2c1cnn2Cc1cn(CCCCO)nn1`: the TGI with HOP-62 NSCLC, in the assay with SR leukemia, in the assay on LOX IMVI melanoma, in the assay on NCI/ADR-RES ovarian, with MALME-3M melanoma and in the assay on SK-OV-3 ovarian was greater than 100 µM throughout. In addition, the TGI with NCI-H522 lung, with HS 578T breast, in the assay on RPMI-8226 leukemia and with OVCAR-4 ovarian was greater than 100 µM throughout.

Consider `Oc1cc(CN2COc3ccccc32)c(O)cc1CNC1CCCCC1`, for which the TGI in the assay with HOP-62 NSCLC was greater than 100 µM; in the assay with SR leukemia it was 49.7 µM; in the assay with LOX IMVI melanoma, 31.6 µM; with NCI/ADR-RES ovarian it was greater than 100 µM; with MALME-3M melanoma it was 38.2 µM; in the assay on SK-OV-3 ovarian it was greater than 100 µM. For the same molecule, the TGI in the assay on NCI-H522 lung was 27.8 µM; in the assay with HS 578T breast, greater than 100 µM; with RPMI-8226 leukemia, 64.5 µM; in the assay on OVCAR-4 ovarian, 52.2 µM.

With `O=C(CN(c1ccc(S(=O)(=O)O)cc1)c1ccc(S(=O)(=O)O)cc1)Nn1cnc2ccc(S(=O)(=O)N(c3ccc(S(=O)(=O)O)cc3)c3ccc(S(=O)(=O)O)cc3)cc2c1=O`, the TGI with HOP-62 NSCLC, in the assay on SR leukemia, in the assay on LOX IMVI melanoma, in the assay on NCI/ADR-RES ovarian, in the assay on MALME-3M melanoma and in the assay on SK-OV-3 ovarian was greater than 100 µM in each case. The TGI with NCI-H522 lung, with HS 578T breast, with RPMI-8226 leukemia and in the assay with OVCAR-4 ovarian was greater than 100 µM in each case.

Regarding `CC(=O)N=C1N(/C=C2\C(=O)Oc3ccccc3C2=O)C(=O)/C(=C/c2ccccc2Cl)N1C`, the TGI in the assay with HOP-62 NSCLC, in the assay on SR leukemia, in the assay with LOX IMVI melanoma, in the assay on NCI/ADR-RES ovarian, with MALME-3M melanoma and in the assay on SK-OV-3 ovarian was greater than 100 µM throughout. The TGI in the assay with NCI-H522 lung was greater than 100 µM; in the assay with HS 578T breast, 34.9 µM; in the assay with RPMI-8226 leukemia it was greater than 100 µM; in the assay with OVCAR-4 ovarian, greater than 100 µM.

For the molecule `c1ccc(C2=Nc3cccc4cccc(c34)N2)cc1`, the TGI was greater than 100 µM with HOP-62 NSCLC; 52.9 µM in the assay on SR leukemia; 60 µM in the assay with LOX IMVI melanoma; greater than 72.1 µM in the assay on NCI/ADR-RES ovarian; greater than 77.6 µM with MALME-3M melanoma; greater than 100 µM with SK-OV-3 ovarian. Moreover, the TGI was 24.8 µM in the assay with NCI-H522 lung, greater than 100 µM with HS 578T breast, greater than 84.6 µM with RPMI-8226 leukemia and 42.6 µM in the assay with OVCAR-4 ovarian.

As for `CCOC(=O)NC(=S)c1ccc(O)c2ccccc12`, the TGI with HOP-62 NSCLC, in the assay with SR leukemia, in the assay on LOX IMVI melanoma, with NCI/ADR-RES ovarian, in the assay on MALME-3M melanoma and in the assay with SK-OV-3 ovarian was greater than 100 µM throughout. Moreover, the TGI in the assay on NCI-H522 lung, with HS 578T breast, in the assay with RPMI-8226 leukemia and with OVCAR-4 ovarian was greater than 100 µM throughout.

On to `COc1cccc2cc(C(=O)Nc3ccccn3)c(=N)oc12`, for which the TGI with HOP-62 NSCLC is greater than 100 µM; in the assay on SR leukemia, 16.5 µM; in the assay with LOX IMVI melanoma it was greater than 100 µM; with NCI/ADR-RES ovarian, greater than 100 µM; with MALME-3M melanoma it was greater than 100 µM; in the assay on SK-OV-3 ovarian, greater than 100 µM. Also, the TGI in the assay with NCI-H522 lung, in the assay on HS 578T breast, with RPMI-8226 leukemia and in the assay with OVCAR-4 ovarian was greater than 100 µM each time.

As to `CCC1=NC(C(F)(F)F)(C(F)(F)F)N=C(/N=C(/N)N(C)C(C(C)C)P(=O)(OC(C)C)OC(C)C)O1` (stereo not given), the TGI in the assay on HOP-62 NSCLC, in the assay on SR leukemia, in the assay with LOX IMVI melanoma, in the assay on NCI/ADR-RES ovarian, in the assay with MALME-3M melanoma and in the assay with SK-OV-3 ovarian was greater than 100 µM throughout. Besides, the TGI with NCI-H522 lung, with HS 578T breast, in the assay with RPMI-8226 leukemia and in the assay with OVCAR-4 ovarian was greater than 100 µM each time.

As for `Cc1cc(C)n(CN(Cn2nc(C)cc2C)c2ccccc2)n1`, the TGI is 66.8 µM in the assay with HOP-62 NSCLC; 14.9 µM in the assay on SR leukemia; 23.8 µM in the assay on LOX IMVI melanoma; 57.7 µM in the assay with NCI/ADR-RES ovarian; 52.7 µM with MALME-3M melanoma; greater than 100 µM with SK-OV-3 ovarian. The TGI is 52.8 µM with NCI-H522 lung, greater than 100 µM in the assay with HS 578T breast, 47.6 µM in the assay on RPMI-8226 leukemia and 52 µM with OVCAR-4 ovarian.

Turning to `CC(NC(NC(C)C12CC3CC(CC(C3)C1)C2)=C(C(Cl)=C(Cl)Cl)[N+](=O)[O-])C12CC3CC(CC(C3)C1)C2` (stereo not given), the TGI is greater than 100 µM with HOP-62 NSCLC; greater than 100 µM in the assay with SR leukemia; 21.5 µM in the assay on LOX IMVI melanoma; greater than 100 µM in the assay with NCI/ADR-RES ovarian; greater than 95.6 µM in the assay on MALME-3M melanoma; greater than 100 µM in the assay with SK-OV-3 ovarian. Moreover, the TGI in the assay with NCI-H522 lung was 24.3 µM; with HS 578T breast, 53.9 µM; with RPMI-8226 leukemia it was greater than 69.5 µM; in the assay with OVCAR-4 ovarian, greater than 100 µM.

Consider `COC(=O)c1c2c(cc3c1CC1(Cc4cc5c(cc4C1)CCC5)C3)CCC2`, for which the TGI in the assay with HOP-62 NSCLC, in the assay with SR leukemia, in the assay on LOX IMVI melanoma, with NCI/ADR-RES ovarian, with MALME-3M melanoma and in the assay on SK-OV-3 ovarian was greater than 100 µM each time. Moreover, the TGI in the assay with NCI-H522 lung, in the assay with HS 578T breast, with RPMI-8226 leukemia and in the assay with OVCAR-4 ovarian was greater than 100 µM in each case.

`COc1ccc2c(CCNS(=O)(=O)c3ccccc3)c(C(C)=O)[nH]c2c1`: the TGI with HOP-62 NSCLC, with SR leukemia, in the assay on LOX IMVI melanoma, in the assay on NCI/ADR-RES ovarian, in the assay with MALME-3M melanoma and in the assay on SK-OV-3 ovarian was greater than 100 µM throughout. In addition, the TGI in the assay on NCI-H522 lung, with HS 578T breast, in the assay with RPMI-8226 leukemia and in the assay on OVCAR-4 ovarian was greater than 100 µM in each case.

With `CN(C)c1ccc(C(=NN)c2ccc(N(C)C)cc2)cc1`, the TGI in the assay on HOP-62 NSCLC was greater than 57.6 µM; in the assay on SR leukemia it was greater than 100 µM; with LOX IMVI melanoma, greater than 100 µM; in the assay on NCI/ADR-RES ovarian, 0.672 µM; in the assay with MALME-3M melanoma, greater than 100 µM; in the assay with SK-OV-3 ovarian, greater than 85.5 µM. Moreover, the TGI with NCI-H522 lung was 18.7 µM; in the assay on HS 578T breast, greater than 100 µM; with RPMI-8226 leukemia, 10.3 µM; in the assay with OVCAR-4 ovarian it was greater than 100 µM.

In the case of `CCN(CC)CCNc1ccc(C)c2sc3ccccc3c(=O)c12`, the TGI with HOP-62 NSCLC turned out to be 24.2 µM; in the assay with SR leukemia, 6.58 µM; with LOX IMVI melanoma, 3.26 µM; with NCI/ADR-RES ovarian, 16.9 µM; in the assay on MALME-3M melanoma, 9.46 µM; with SK-OV-3 ovarian, 18.1 µM. Moreover, the TGI is 5.5 µM with NCI-H522 lung, 6.63 µM in the assay on HS 578T breast, 4.37 µM in the assay on RPMI-8226 leukemia and 18.1 µM in the assay with OVCAR-4 ovarian.
